The numbers were not newly measured in US11166956B2, “Combinations of PDE1 inhibitors and NEP inhibitors” (INTRA-CELLULAR THERAPIES, INC., priority 2014, dated 2021), which cites them from elsewhere.

Molecules are shown by their SMILES.

One series has as its system NEP and ACE. The following applies: clinical studies.
A further series deals with NEP (Homo sapiens, UniProt P08473).
NEP, sequence (P08473 whole entry): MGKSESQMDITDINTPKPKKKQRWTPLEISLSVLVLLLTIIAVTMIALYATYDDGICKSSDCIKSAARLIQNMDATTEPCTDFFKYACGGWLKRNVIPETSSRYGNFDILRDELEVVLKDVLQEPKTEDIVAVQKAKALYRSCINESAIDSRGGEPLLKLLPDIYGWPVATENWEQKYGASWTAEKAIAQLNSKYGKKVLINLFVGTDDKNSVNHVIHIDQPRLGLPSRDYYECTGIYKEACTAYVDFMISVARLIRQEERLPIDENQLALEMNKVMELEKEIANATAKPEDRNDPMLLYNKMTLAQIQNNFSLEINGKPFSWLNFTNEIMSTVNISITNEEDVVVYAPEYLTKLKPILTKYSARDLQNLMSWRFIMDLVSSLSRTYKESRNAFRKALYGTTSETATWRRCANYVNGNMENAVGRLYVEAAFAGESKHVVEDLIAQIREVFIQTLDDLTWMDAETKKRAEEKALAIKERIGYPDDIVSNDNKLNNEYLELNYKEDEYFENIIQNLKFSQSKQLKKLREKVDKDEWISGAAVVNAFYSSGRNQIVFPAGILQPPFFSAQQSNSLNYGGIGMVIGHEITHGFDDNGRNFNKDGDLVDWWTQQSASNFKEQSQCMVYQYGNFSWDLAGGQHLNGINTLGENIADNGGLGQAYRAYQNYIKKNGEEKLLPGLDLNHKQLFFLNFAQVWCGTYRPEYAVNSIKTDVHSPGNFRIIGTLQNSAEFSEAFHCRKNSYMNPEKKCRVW

Consider `COc1cc2c(c(O)c1OC)C(=O)C[C@@H](c1cc(O)ccc1O)O2` [dioclein], for which, in the series with PDE1, the vasodilation result was “induce PKG-dependent vasodilation”. As for `O=C(N[C@H]1CCS[C@H]2CCC[C@@H](C(=O)O)N2C1=O)[C@@H](S)Cc1ccccc1` [omapatrilat], the incidence of angioedema result in the series with NEP and ACE is “severe incidence of angioedema”. Turning to `COCCOC[C@H](CC1(C(=O)N[C@H]2CC[C@@H](C(=O)O)CC2)CCCC1)C(=O)Oc1ccc2c(c1)CCC2` [Candoxatril], on NEP (in vivo), the blood-pressure lowering effect entry is reported as “does not produce a stable blood-pressure lowering effect”; the “plasma ANP and cGMP levels” value is “dose-dependent increase”. In addition, on NEP (patients with heart failure), the levels of endothelin result is “increase levels of endothelin significantly”.
